Read-outs that look alike come from different tables or passages of the source.
Tested on: hiPSC-CMs (iCell-Cardiomyocytes^2)
Summary of the method: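 Monolayers of hiPSC-CMs on fibronectin-coated MEA plates, 50 K/well, kept at 37°C, 5% CO2; compounds added in 0.1% final DMSO after 5-min baseline. Field potential and impedance parameters expressed as mean ± SD percent change from baseline; arrhythmic events noted; cytotoxicity fluorescence normalized to DMSO, Kruskal-Wallis.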

## Cc1cn(-c2cc(NC(=O)c3ccc(C)c(Nc4nccc(-c5cccnc5)n4)c3)cc(C(F)(F)F)c2)cn1 [Nilotinib]
0.01 µM, 2h
  BR (beat rate) % change from baseline: 1±2%
  Beating below threshold, number of observations/total well numbers: 0/5
  Cessation of beating, number of observations/total well numbers: 0/5
  EAD, number of observations/total well numbers: 0/5
  FPD (field-potential duration), % change from baseline: 3.9±3.8%
  FPDc (field-potential duration corrected by beat-rate), % change from baseline: 4.1±4%
  Flat T-wave-like, number of observations/total well numbers: 0/5
0.01 µM, 24h
  BR (beat rate) % change from baseline: -1±3%
  Beating below threshold, number of observations/total well numbers: 0/5
  Cessation of beating, number of observations/total well numbers: 0/5
  EAD, number of observations/total well numbers: 0/5
  FPD (field-potential duration), % change from baseline: 6.4±4.8%
  FPDc (field-potential duration corrected by beat-rate), % change from baseline: 6.1±4.9%
  Flat T-wave-like, number of observations/total well numbers: 0/5
0.01 µM, 48h
  BR (beat rate) % change from baseline: -3±2%
  Beating below threshold, number of observations/total well numbers: 0/5
  Cessation of beating, number of observations/total well numbers: 0/5
  EAD, number of observations/total well numbers: 0/5
  FPD (field-potential duration), % change from baseline: 12.9±12.2%
  FPDc (field-potential duration corrected by beat-rate), % change from baseline: 11.9±11.5%
  Flat T-wave-like, number of observations/total well numbers: 0/5
0.01 µM, 72h
  BR (beat rate) % change from baseline: -8±2%
  Beating below threshold, number of observations/total well numbers: 0/5
  Cessation of beating, number of observations/total well numbers: 0/5
  EAD, number of observations/total well numbers: 0/5
  FPD (field-potential duration), % change from baseline: 10.1±2.4%
  FPDc (field-potential duration corrected by beat-rate), % change from baseline: 7.1±2.3%
  Flat T-wave-like, number of observations/total well numbers: 0/5
0.01 µM, 96h
  BR (beat rate) % change from baseline: -14±3%
  Beating below threshold, number of observations/total well numbers: 0/5
  Cessation of beating, number of observations/total well numbers: 0/5
  EAD, number of observations/total well numbers: 0/5
  FPD (field-potential duration), % change from baseline: 13.9±2.5%
  FPDc (field-potential duration corrected by beat-rate), % change from baseline: 8.7±2.6%
  Flat T-wave-like, number of observations/total well numbers: 0/5
0.1 µM, 2h
  BR (beat rate) % change from baseline: -1±1%
  Beating below threshold, number of observations/total well numbers: 0/5
  Cessation of beating, number of observations/total well numbers: 0/5
  EAD, number of observations/total well numbers: 0/5
  FPD (field-potential duration), % change from baseline: 8.9±9.8%
  FPDc (field-potential duration corrected by beat-rate), % change from baseline: 8.6±10.1%
  Flat T-wave-like, number of observations/total well numbers: 0/5
0.1 µM, 24h
  BR (beat rate) % change from baseline: -8±3%
  Beating below threshold, number of observations/total well numbers: 0/5
  Cessation of beating, number of observations/total well numbers: 0/5
  EAD, number of observations/total well numbers: 0/5
  FPD (field-potential duration), % change from baseline: 19.8±3.9 %
  FPDc (field-potential duration corrected by beat-rate), % change from baseline: 16.6±4.1 %
  Flat T-wave-like, number of observations/total well numbers: 0/5
0.1 µM, 48h
  BR (beat rate) % change from baseline: -8±4%
  Beating below threshold, number of observations/total well numbers: 0/5
  Cessation of beating, number of observations/total well numbers: 0/5
  EAD, number of observations/total well numbers: 0/5
  FPD (field-potential duration), % change from baseline: 15.4±2.6%
  FPDc (field-potential duration corrected by beat-rate), % change from baseline: 12.7±3%
  Flat T-wave-like, number of observations/total well numbers: 0/5
0.1 µM, 72h
  BR (beat rate) % change from baseline: -11±4%
  Beating below threshold, number of observations/total well numbers: 0/5
  Cessation of beating, number of observations/total well numbers: 0/5
  EAD, number of observations/total well numbers: 0/5
  FPD (field-potential duration), % change from baseline: 17.3±1.9%
  FPDc (field-potential duration corrected by beat-rate), % change from baseline: 12.5±1.7%
  Flat T-wave-like, number of observations/total well numbers: 0/5
0.1 µM, 96h
  BR (beat rate) % change from baseline: -18±4%
  Beating below threshold, number of observations/total well numbers: 0/5
  Cessation of beating, number of observations/total well numbers: 0/5
  EAD, number of observations/total well numbers: 0/5
  FPD (field-potential duration), % change from baseline: 19.6±3.2%
  FPDc (field-potential duration corrected by beat-rate), % change from baseline: 11.8±4.2%
  Flat T-wave-like, number of observations/total well numbers: 0/5
0.3 µM, 2h
  BR (beat rate) % change from baseline: -4±1%

— paper PMC10364322, “Evaluation of chronic drug-induced electrophysiological and cytotoxic effects using human-induced pluripotent stem cell-derived cardiomyocytes (hiPSC-CMs)” (Frontiers in Pharmacology, 2023)
